Measured values taken from EP2756852A1, “Heparin-lipidic nanoparticle conjugates” (Centre de Recerca en Salut Internacional de Barcelona, priority 2013, dated 2014).
“Also recorded” adds a separate entry of the source.

Key:
[1] = test system: healthy cells; test: Unspecific cytotoxicity assay (WST-1); format: cell-based; conditions: DOTAP concentration up to 200 µM; 24 or 48 h at 37°C; WST-1, absorbance at 440 nm
Procedure: Cells were seeded in 96-well plates at a density of 5000 cells/100 µl/well, and incubated for 24 hours at 37°C in Medium 199 with Earle's Salts, supplemented with L-glutamine and FBS (PAA Laboratories GmbH). After that time the medium was carefully removed with a pipette and 90 µL of new medium (without FBS in this case) were added, followed by 10 µL of the sample to be analysed, which consisted of a solution of DOTAP 200 µM in PBS. It is advisable to prepare the sample dilutions in a 9:1 proportion (9 µl media:1 µl sample). After incubating for either 24 or 48 h at 37°C, 10 µL of WST-1 reagent were added, and after incubating for 1 h at 37°C absorbance at 440 nm was measured.

[2] = test system: P. falciparum 3D7 strain; test: Plasmodium falciparum growth inhibition assay (parasitemia by blood smear counting or FACS); format: cell-based; conditions: expressed with respect to non-treated pRBC, 48 h, liposomes 50 µM total lipid, primaquine 3 µM final in culture
Procedure: For culture maintenance, parasitemias were kept below 5% late forms by dilution with washed RBCs.
150 µL of this Plasmodium culture was plated in 96-well plates and incubated in the presence of liposomes for 48 h in the conditions described above.
Parasitemia was determined by microscopic counting of blood smears, or by fluorescence-assisted cell sorting (FACS). Smears were fixed in methanol for a few seconds and then stained for ten minutes with Giemsa (Merck Chemicals, Germany) diluted 1:10 in Sorenson's Buffer, pH 7.2. […] Samples were analyzed using an Epics XL flow cytometer (Coulter Corporation, Miami, Florida), set up with the standard configuration. Excitation of the sample was done using a standard 488 nm air-cooled argon-ion laser at 15 mW power. Forward scatter and side scatter were used to gate the RBC population. […] The single-cell population was selected on a forward-side scatter scattergram, and the fluorescence from this population was analyzed. Parasitemia was expressed as the number of parasitized cells per 100 erythrocytes.
Parasitemia was determined by microscopic counting of blood smears, or by fluorescence-assisted cell sorting (FACS).

How did the cytotoxicity [1] turn out when CCCCCCCC/C=C\CCCCCCCC(=O)OCC(C[N+](C)(C)C)OC(=O)CCCCCCC/C=C\CCCCCCCC (stereo not shown) [DOTAP, 1,2-dioleoyl-3-trimethylammonium-propane] was run?
Its cytotoxicity is “not toxic; also recorded: not observed”.

Which parasitemia ([2]; Example 1, FIG. 2) does the source give for COc1cc(NC(C)CCCN)c2ncccc2c1 (stereo not shown) [PQ, primaquine] here?
Its parasitemia is 24.8%.

What about the parasitemia ([2]; Example 2, FIG. 3) of the same compound?
The parasitemia was 45.8%.

What about the parasitemia ([2]; Example 3, FIG. 4) of the same compound?
The parasitemia was 46.4%.
